Source: patent publication US10131652B2, “Pyrimidinyloxy benzene derivatives as herbicides” (E. I. DU PONT DE NEMOURS AND COMPANY, priority 2014, dated 2018)
Like-named read-outs stand apart in the source and are kept apart here.

Legend:
Type in all cases: in vivo
[1] = tested on: morningglory (Ipomoea coccinea); experiment: Test F pre-/postemergence plant response; conditions: Ipomoea, pre-emergence, scale 0 to 100, read-out: Plant response rating, Morningglory
Summary of the method: (§1)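 Formulation: non-phytotoxic solvent mix + surfactant. Preemergence: applied to seeded silt loam. Postemergence: foliar, 1- to 4-leaf plants, 2–18 cm. Greenhouse hold 14–21 days; visual score vs controls, 0 = no effect, 100 = complete control; dash = not tested.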

[2] = tested on: ragweed (common ragweed, Ambrosia elatior); experiment: Test F pre-/postemergence plant response; conditions: Ambrosia artemisiifolia, scale 0 to 100, read-out: Plant response rating, Ragweed
Summary of the method: as §1

[3] = tested on: yellow nutsedge (Cyperus esculentus); experiment: Test F pre-/postemergence plant response; conditions: Cyperus, pre-emergence, scale 0 to 100, read-out: Plant response rating, Nutsedge, Yellow
Summary of the method: as §1

[4] = tested on: hairy beggarticks (Bidens pilosa); experiment: Test F pre-/postemergence plant response; conditions: Bidens pilosa, scale 0 to 100, read-out: Plant response rating, Beggarticks
Summary of the method: as §1

[5] = tested on: barnyardgrass (Echinochloa crus-galli); experiment: Test F pre-/postemergence plant response; conditions: Echinochloa crus-galli, scale 0 to 100, read-out: Plant response rating, Barnyardgrass
Summary of the method: as §1

[6] = tested on: johnsongrass (Sorghum halepense); experiment: Test F pre-/postemergence plant response; conditions: Sorghum halepense, pre-emergence, scale 0 to 100, read-out: Plant response rating, Johnsongrass
Summary of the method: as §1

[7] = tested on: giant foxtail (Setaria faberii); experiment: Test F pre-/postemergence plant response; conditions: Setaria faberi, pre-emergence, scale 0 to 100, read-out: Plant response rating, Foxtail, Giant
Summary of the method: as §1

[8] = tested on: waterhemp (common waterhemp, Amaranthus rudis); experiment: Test F pre-/postemergence plant response; conditions: Amaranthus tuberculatus, scale 0 to 100, read-out: Plant response rating, Waterhemp
Summary of the method: as §1

[9] = tested on: field bindweed (Convolvulus arvensis); experiment: Test F pre-/postemergence plant response; conditions: Convolvulus arvensis, scale 0 to 100, read-out: Plant response rating, Field Bindweed
Summary of the method: as §1

[10] = tested on: velvetleaf (Abutilon theophrasti); experiment: Test F pre-/postemergence plant response; conditions: Abutilon theophrasti, pre-emergence, scale 0 to 100, read-out: Plant response rating, Velvetleaf
Summary of the method: as §1

[11] = tested on: dayflower (Virginia (VA) dayflower, Commelina virginica); experiment: Test F pre-/postemergence plant response; conditions: Commelina virginica, scale 0 to 100, read-out: Plant response rating, Dayflower, VA
Summary of the method: as §1

[12] = tested on: ducksalad (Heteranthera limosa); experiment: Test D flooded paddy test plant response; conditions: Flood (flooded paddy test), visual rating on scale 0 to 100 (0 no effect, 100 complete control), 13 to 15 days
Summary of the method: (§2)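 Plants at 2-leaf stage in pots flooded 3 cm above soil; compounds applied directly into paddy water, depth kept throughout. After 13-15 days in greenhouse, visual rating against controls on 0-100 scale (100 = complete control).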

[13] = tested on: barnyardgrass (Echinochloa crus-galli); experiment: Test D flooded paddy test plant response; conditions: Flood (flooded paddy test), visual rating on scale 0 to 100 (0 no effect, 100 complete control), 13 to 15 days
Summary of the method: as §2

[14] = tested on: rice (Oryza sativa); experiment: Test D flooded paddy test plant response; conditions: Flood (flooded paddy test), visual rating on scale 0 to 100 (0 no effect, 100 complete control), 13 to 15 days
Summary of the method: as §2

[15] = tested on: small-flower umbrella sedge (Cyperus difformis); experiment: Test D flooded paddy test plant response; conditions: Flood (flooded paddy test), visual rating on scale 0 to 100 (0 no effect, 100 complete control), 13 to 15 days
Summary of the method: as §2

[16] = post-emergence, 31 g ai/ha Postemergence
[17] = post-emergence, 62 g ai/ha Postemergence
[18] = pre-emergence, 31 g ai/ha Preemergence
[19] = pre-emergence, 62 g ai/ha Preemergence

Fc1cccc(Oc2ncc(Cl)cn2)c1-c1cc(C(F)F)on1 [Compound 55, 5-chloro-2-[2-[5-(difluoromethyl)-3-isoxazolyl]-3-fluorophenoxy]pyrimidine]
pest or weed control at 31 g/ha ([1]; 31 g ai/ha Preemergence): 30%
pest or weed control at 62 g/ha ([1]; Preemergence): 98%
pest or weed control at 31 g/ha [2, 16]: 55%
pest or weed control at 62 g/ha [2, 17]: 55%
pest or weed control at 31 g/ha [2, 18]: 40%
pest or weed control at 62 g/ha ([2]; pre-emergence, Preemergence): 50%
pest or weed control at 31 g/ha ([3]; 31 g ai/ha Preemergence): 0%
pest or weed control at 62 g/ha ([3]; Preemergence): 0%
pest or weed control at 31 g/ha [4, 16]: 55%
pest or weed control at 62 g/ha [4, 17]: 70%
pest or weed control at 31 g/ha [4, 18]: 0%
pest or weed control at 62 g/ha [4, 19]: 0%
pest or weed control at 31 g/ha [5, 16]: 50%
pest or weed control at 62 g/ha [5, 17]: 35%
pest or weed control at 31 g/ha [5, 18]: 10%
pest or weed control at 62 g/ha [5, 19]: 85%
pest or weed control at 31 g/ha ([6]; 31 g ai/ha Preemergence): 20%
pest or weed control at 62 g/ha ([6]; Preemergence): 90%
pest or weed control at 31 g/ha ([7]; 31 g ai/ha Preemergence): 90%
pest or weed control at 62 g/ha ([7]; 62 g ai/ha Preemergence): 98%
pest or weed control at 31 g/ha [8, 16]: 90%
pest or weed control at 62 g/ha [8, 17]: 100%
pest or weed control at 31 g/ha [8, 18]: 100%
pest or weed control at 62 g/ha ([8]; pre-emergence, Preemergence): 100%
pest or weed control at 31 g/ha [9, 16]: 25%
pest or weed control at 62 g/ha [9, 17]: 70%
pest or weed control at 31 g/ha [9, 18]: 0%
pest or weed control at 62 g/ha [9, 19]: 10%
pest or weed control at 31 g/ha ([10]; 31 g ai/ha Preemergence): 100%
pest or weed control at 62 g/ha ([10]; Preemergence): 100%
pest or weed control at 31 g/ha [11, 16]: 70%
pest or weed control at 31 g/ha [11, 18]: 60%
pest or weed control at 62 g/ha [11, 19]: 40%
Plant response rating, Ducksalad ([12]; 31 g ai/ha): 75
Plant response rating, Ducksalad ([12]; 62 g ai/ha): 80
Plant response rating, Ducksalad ([12]; 125 g ai/ha): 85
Plant response rating, Ducksalad ([12]; 250 g ai/ha): 90
Plant response rating, Barnyardgrass ([13]; 31 g ai/ha): 0
Plant response rating, Barnyardgrass ([13]; 62 g ai/ha): 0
Plant response rating, Barnyardgrass ([13]; 125 g ai/ha): 10
Plant response rating, Barnyardgrass ([13]; 250 g ai/ha): 30
Plant response rating, Rice ([14]; 31 g ai/ha): 0
Plant response rating, Rice ([14]; 62 g ai/ha): 0
Plant response rating, Rice ([14]; 125 g ai/ha): 0
Plant response rating, Rice ([14]; 250 g ai/ha): 0
Plant response rating, Sedge, Umbrella ([15]; 31 g ai/ha): 75
Plant response rating, Sedge, Umbrella ([15]; 62 g ai/ha): 75
Plant response rating, Sedge, Umbrella ([15]; 125 g ai/ha): 85
Plant response rating, Sedge, Umbrella ([15]; 250 g ai/ha): 100
